# According to ChEMBL document CHEMBL3877265, “Design, synthesis and docking studies of novel 1,2-dihydro-4-hydroxy-2-oxoquinoline-3-carboxamide derivatives as a potential anti-proliferative agents” (2017):
# Assays:
# Format in all cases: functional
# [1] = Antiproliferative activity against human MDA-MB-231 cells after 48 hrs by SRB assay; details: MDA-MB-231, 48 h
# [2] = Antiproliferative activity against human PANC1 cells after 48 hrs by SRB assay; details: PANC-1, 48 h
# [3] = Antiproliferative activity against human HeLa cells after 48 hrs by SRB assay
smiles,measurement,setting,value
Cn1c(=O)c(C(=O)NCCC(=O)N2CCN(c3ccccc3)CC2)c(O)c2ccccc21,GI50,[1]; read-out: GI50,1620 nM
same,GI50,[1]; read-out: pGI50 (converted),1620 nM
same,GI50,[2]; read-out: GI50,1570 nM
same,GI50,[2]; read-out: pGI50 (converted),1570 nM
same,GI50,[3]; read-out: GI50,3900 nM
same,GI50,[3]; read-out: pGI50 (converted),3900 nM
COc1cccc(N2CCN(C(=O)CCNC(=O)c3c(O)c4ccccc4n(C)c3=O)CC2)c1,GI50,[1]; read-out: GI50,1300 nM
same,GI50,[1]; read-out: pGI50 (converted),1300 nM
same,GI50,[2]; read-out: GI50,510 nM
same,GI50,[2]; read-out: pGI50 (converted),510 nM
same,GI50,[3]; read-out: GI50,730 nM
same,GI50,[3]; read-out: pGI50 (converted),730 nM
Cn1c(=O)c(C(=O)NCCC(=O)N2CCCCC2)c(O)c2ccccc21,GI50,[1]; read-out: GI50,1400 nM
same,GI50,[1]; read-out: pGI50 (converted),1400 nM
same,GI50,[2]; read-out: GI50,150 nM
same,GI50,[2]; read-out: pGI50 (converted),150 nM
same,GI50,[3]; read-out: GI50,820 nM
same,GI50,[3]; read-out: pGI50 (converted),820 nM
CN1CCN(C(=O)CCNC(=O)c2c(O)c3ccccc3n(C)c2=O)CC1,GI50,[1]; read-out: GI50,590 nM
same,GI50,[1]; read-out: pGI50 (converted),590 nM
same,GI50,[2]; read-out: GI50,1660 nM
same,GI50,[2]; read-out: pGI50 (converted),1660 nM
same,GI50,[3]; read-out: GI50,1160 nM
same,GI50,[3]; read-out: pGI50 (converted),1160 nM
Cn1c(=O)c(C(=O)NCCC(=O)N2CCN(c3ccccc3F)CC2)c(O)c2ccccc21,GI50,[1]; read-out: GI50,1700 nM
same,GI50,[1]; read-out: pGI50 (converted),1700 nM
same,GI50,[2]; read-out: GI50,2500 nM
same,GI50,[2]; read-out: pGI50 (converted),2500 nM
same,GI50,[3]; read-out: GI50,960 nM
same,GI50,[3]; read-out: pGI50 (converted),960 nM
Cn1c(=O)c(C(=O)NCCC(=O)N2CCN(c3ccc(C(F)(F)F)cc3)CC2)c(O)c2ccccc21,GI50,[1]; read-out: GI50,5400 nM
same,GI50,[1]; read-out: pGI50 (converted),5400 nM
same,GI50,[2]; read-out: GI50,2550 nM
same,GI50,[2]; read-out: pGI50 (converted),2550 nM
same,GI50,[3]; read-out: GI50,3700 nM
same,GI50,[3]; read-out: pGI50 (converted),3700 nM
CCN1CCN(C(=O)CCNC(=O)c2c(O)c3ccccc3n(C)c2=O)CC1,GI50,[1]; read-out: GI50,1320 nM
same,GI50,[1]; read-out: pGI50 (converted),1320 nM
same,GI50,[2]; read-out: GI50,480 nM
same,GI50,[2]; read-out: pGI50 (converted),480 nM
same,GI50,[3]; read-out: GI50,880 nM
same,GI50,[3]; read-out: pGI50 (converted),880 nM
Cn1c(=O)c(C(=O)NCCC(=O)N2CCN(Cc3ccccc3)CC2)c(O)c2ccccc21,GI50,[1]; read-out: GI50,510 nM
same,GI50,[1]; read-out: pGI50 (converted),510 nM
same,GI50,[2]; read-out: GI50,950 nM
same,GI50,[2]; read-out: pGI50 (converted),950 nM
same,GI50,[3]; read-out: GI50,760 nM
same,GI50,[3]; read-out: pGI50 (converted),760 nM
Cn1c(=O)c(C(=O)NCCC(=O)N2CCSCC2)c(O)c2ccccc21,GI50,[1]; read-out: GI50,2250 nM
same,GI50,[1]; read-out: pGI50 (converted),2250 nM
same,GI50,[2]; read-out: GI50,1910 nM
same,GI50,[2]; read-out: pGI50 (converted),1910 nM
same,GI50,[3]; read-out: GI50,3000 nM
same,GI50,[3]; read-out: pGI50 (converted),3000 nM
Cn1c(=O)c(C(=O)NCCC(=O)N2CCC(Cc3ccccc3)CC2)c(O)c2ccccc21,GI50,[1]; read-out: GI50,710 nM
same,GI50,[1]; read-out: pGI50 (converted),710 nM
same,GI50,[2]; read-out: GI50,680 nM
same,GI50,[2]; read-out: pGI50 (converted),680 nM
same,GI50,[3]; read-out: GI50,1400 nM
same,GI50,[3]; read-out: pGI50 (converted),1400 nM
Cn1c(=O)c(C(=O)NCCC(=O)N2CCN(c3ccc([N+](=O)[O-])cc3)CC2)c(O)c2ccccc21,GI50,[1]; read-out: GI50,300 nM
same,GI50,[1]; read-out: pGI50 (converted),300 nM
same,GI50,[2]; read-out: GI50,420 nM
same,GI50,[2]; read-out: pGI50 (converted),420 nM
same,GI50,[3]; read-out: GI50,940 nM
same,GI50,[3]; read-out: pGI50 (converted),940 nM
COc1ccccc1N1CCN(C(=O)CCNC(=O)c2c(O)c3ccccc3n(C)c2=O)CC1,GI50,[1]; read-out: GI50,1200 nM
same,GI50,[1]; read-out: pGI50 (converted),1200 nM
same,GI50,[2]; read-out: GI50,700 nM
same,GI50,[2]; read-out: pGI50 (converted),700 nM
same,GI50,[3]; read-out: GI50,740 nM
same,GI50,[3]; read-out: pGI50 (converted),740 nM
COc1ccc(C[C@@H](O)c2cc(OC)c(OC)c(OC)c2)cc1O [COMBRETASTATIN],GI50,[1]; read-out: GI50,90 nM
same,GI50,[1]; read-out: pGI50 (converted),90 nM
same,GI50,[2]; read-out: GI50,59 nM
same,GI50,[2]; read-out: pGI50 (converted),59 nM
same,GI50,[3]; read-out: GI50,83 nM
same,GI50,[3]; read-out: pGI50 (converted),83 nM
COC(=O)Nc1nc2cc(C(=O)c3cccs3)ccc2[nH]1 [NOCODAZOLE],GI50,[1]; read-out: GI50,< 10 nM
same,GI50,[2]; read-out: GI50,< 10 nM
same,GI50,[3]; read-out: GI50,< 10 nM
